Values quoted from earlier work, collected in patent US8993551B2, “Composition for the regulation of the human immune system and the prevention and treatment of diseases thereof” (priority 2002, dated 2015).
Read-outs that look alike come from different tables or passages of the source.

Columns and labels:
[1] = of total dietary amount consumed / of intake, mammals
[2] = system: human breast cancer cells
[3] = system: CD4 lymphocyte count; conditions: AIDS patients
[4] = system: HT-29 human colon cancer cells
[5] = system: LNCaP human prostate cancer cells

Row | Structure (SMILES) | intestinal absorption [1] | inhibition of breast cancer cell growth ([2]; after 3 days) | inhibition of breast cancer cell growth ([2]; after 5 days) | increase in rate of cell death ([2]; breast cancer cells) | CD4 lymphocyte count [3] | reduction in cell growth [4] | inhibition of prostate cancer cell growth [5] | increase in cell death ([5]; prostate cancer cells)
1 | CC[C@H](CC[C@@H](C)[C@H]1CC[C@H]2[C@@H]3CC=C4C[C@@H](O)CC[C@]4(C)[C@H]3CC[C@]12C)C(C)C [beta-sitosterol] | ~5% | 66% | 80% | 600% | maintain CD4 lymphocyte count | 55% | 24% | 400%
2 | CC(C)CCC[C@@H](C)[C@H]1CC[C@H]2[C@@H]3CC=C4C[C@@H](O)CC[C@]4(C)[C@H]3CC[C@]12C [cholesterol] | 45-54% | – | – | – | – | – | – | –
